Results on 22 molecules are retold here after ChEMBL document CHEMBL1139154, “Inhibitors of HCV NS5B polymerase: synthesis and structure-activity relationships of unsymmetrical 1-hydroxy-4,4-dialkyl-3-oxo-3,4-dihydronaphthalene benzothiadiazine derivatives” (Bioorg Med Chem Lett, 2007).

In test [1] the test system is Hepatitis C virus. The experiment in a line: Antiviral activity against HCV 1a replicon in presence of fetal calf serum. Format: functional, organism-based, Hepacivirus hominis. As to conditions: subtype 1a.
A short description of test [2]: Inhibition of HCV 1a NS5B polymerase. Set-up: species or system Hepatitis C virus subtype 1a.
Test [3] concerns Hepatitis C virus. In words: Inhibition of HCV 1b NS5B polymerase. Set-up: species or system Hepatitis C virus subtype 1b.

pEC50, pIC50: −log10 of the molar value.

As to `CCCC1(C)C(=O)C(C2=NS(=O)(=O)c3cc(NS(C)(=O)=O)ccc3N2)=C(O)c2ccccc21` (stereo not drawn), the pEC50 in the test on Hepatitis C virus [1] was 6.74. This molecule also had a pIC50 in test [2] of 7.70.

As to `C=CCC1(C)C(=O)C(C2=NS(=O)(=O)c3cc(NS(C)(=O)=O)ccc3N2)=C(O)c2ccccc21` (stereo not drawn), the pEC50 in the test with Hepatitis C virus [1] is 6.16. Besides, the pIC50 in the test on Hepatitis C virus [3] was 6.65; in test [2], 7.74.

Take `CC(C)=CCC1(C)C(=O)C(C2=NS(=O)(=O)c3cc(NS(C)(=O)=O)ccc3N2)=C(O)c2ccccc21` (stereo not drawn): the pEC50 in the test on Hepatitis C virus [1] is 6.63. Also, the results for the pIC50 (in the test with Hepatitis C virus [3]; in test [2]) were 6.83 and 7.42, respectively.

Consider `CC1(C/C=C/c2ccccc2)C(=O)C(C2=NS(=O)(=O)c3cc(NS(C)(=O)=O)ccc3N2)=C(O)c2ccccc21` (stereo not drawn), for which the pIC50 with Hepatitis C virus [3] was 5.73; in test [2] it was 6.34.

With `CC1(CC=C2CCC2)C(=O)C(C2=NS(=O)(=O)c3cc(NS(C)(=O)=O)ccc3N2)=C(O)c2ccccc21` (stereo not drawn), the negative logarithm of the EC50 (pEC50) in the test with Hepatitis C virus [1] is 5.92. Besides, the values for the pIC50 (in the test on Hepatitis C virus [3]; in test [2]) were 6.37 and 7.06, respectively.

Turning to `CC1(CC=C2CCCC2)C(=O)C(C2=NS(=O)(=O)c3cc(NS(C)(=O)=O)ccc3N2)=C(O)c2ccccc21` (stereo not drawn), the pEC50 in the test with Hepatitis C virus [1] is 5.83. Besides, the pIC50 is 6.26 in the test on Hepatitis C virus [3] and 7.03 in test [2].

For the molecule `CC1(CC=C2CCCCC2)C(=O)C(C2=NS(=O)(=O)c3cc(NS(C)(=O)=O)ccc3N2)=C(O)c2ccccc21` (stereo not drawn), the pIC50 with Hepatitis C virus [3] is 6.04; in test [2], 6.71.

On to `CCOC(=O)/C=C/CC1(C)C(=O)C(C2=NS(=O)(=O)c3cc(NS(C)(=O)=O)ccc3N2)=C(O)c2ccccc21` (stereo not drawn), for which the pEC50 with Hepatitis C virus [1] was under 5.00. The pIC50 in the test with Hepatitis C virus [3] is 5.23; in test [2], 5.97.

Molecule `CC1(C)C(=O)C(C2=NS(=O)(=O)c3cc(NS(C)(=O)=O)ccc3N2)=C(O)c2ccccc21` had a pIC50 in test [2] of 6.03.

Turning to `CC(C)CCC1(C)C(=O)C(C2=NS(=O)(=O)c3cc(NS(C)(=O)=O)ccc3N2)=C(O)c2ccccc21` (stereo not drawn), the pEC50 in the test with Hepatitis C virus [1] is 7.77. Moreover, the pIC50 was 8.15 in the test on Hepatitis C virus [3] and 8.40 in test [2].

In the case of `CC1(CCCc2ccccc2)C(=O)C(C2=NS(=O)(=O)c3cc(NS(C)(=O)=O)ccc3N2)=C(O)c2ccccc21` (stereo not drawn), the pIC50 in the test with Hepatitis C virus [3] is 6.55; in test [2], 6.94.

Consider `CC1(CCC2CCC2)C(=O)C(C2=NS(=O)(=O)c3cc(NS(C)(=O)=O)ccc3N2)=C(O)c2ccccc21` (stereo not drawn), for which the pEC50 in the test with Hepatitis C virus [1] was 6.72. Besides, the results for the pIC50 (in the test with Hepatitis C virus [3]; in test [2]) were 7.44 and 7.80, respectively.

As for `CC1(CCC2CCCC2)C(=O)C(C2=NS(=O)(=O)c3cc(NS(C)(=O)=O)ccc3N2)=C(O)c2ccccc21` (stereo not drawn), the pEC50 in the test on Hepatitis C virus [1] is 6.49. In addition, the negative-log IC50 (pIC50) was 7.15 in the test with Hepatitis C virus [3] and 7.49 in test [2].

On to `CC(C)(O)CCC1(C)C(=O)C(C2=NS(=O)(=O)c3cc(NS(C)(=O)=O)ccc3N2)=C(O)c2ccccc21` (stereo not drawn), for which, in the test with Hepatitis C virus [1], the pEC50 was 5.10. Besides, the pIC50 in the test with Hepatitis C virus [3] is 6.71; in test [2] it was 7.37.

With `CC(C)(Cl)CCC1(C)C(=O)C(C2=NS(=O)(=O)c3cc(NS(C)(=O)=O)ccc3N2)=C(O)c2ccccc21` (stereo not drawn), the pEC50 in the test on Hepatitis C virus [1] is 5.66. Also, the results for the pIC50 (with Hepatitis C virus [3]; in test [2]) were 7.15 and 7.41, respectively.

For `CC1(CC2CC2)C(=O)C(C2=NS(=O)(=O)c3cc(NS(C)(=O)=O)ccc3N2)=C(O)c2ccccc21` (stereo not drawn), in the test on Hepatitis C virus [1], the negative-log EC50 (pEC50) was 6.80. In addition, the pIC50 in the test on Hepatitis C virus [3] is 7.40; in test [2], 7.68.

On to `CC1(CCCO)C(=O)C(C2=NS(=O)(=O)c3cc(NS(C)(=O)=O)ccc3N2)=C(O)c2ccccc21` (stereo not drawn), for which the pEC50 with Hepatitis C virus [1] is 6.07.

Turning to `CC(C)=CC[C@@]1(C)C(=O)C(C2=NS(=O)(=O)c3cc(NS(C)(=O)=O)ccc3N2)=C(O)c2ccccc21`, in the test with Hepatitis C virus [1], the negative-log EC50 (pEC50) is 6.87. For the same molecule, the pIC50 in the test with Hepatitis C virus [3] was 7.49; in test [2], 7.72.

Turning to `CC(C)=CC[C@]1(C)C(=O)C(C2=NS(=O)(=O)c3cc(NS(C)(=O)=O)ccc3N2)=C(O)c2ccccc21`, the pIC50 in test [2] is 6.15.

As for `CC1(CCC2CCCCC2)C(=O)C(C2=NS(=O)(=O)c3cc(NS(C)(=O)=O)ccc3N2)=C(O)c2ccccc21` (stereo not drawn), in the test on Hepatitis C virus [1], the pEC50 was 5.57. Further, the pIC50 in the test with Hepatitis C virus [3] is 6.71; in test [2], 7.24.

Consider `CC1(CC(O)CO)C(=O)C(C2=NS(=O)(=O)c3cc(NS(C)(=O)=O)ccc3N2)=C(O)c2ccccc21` (stereo not drawn), for which the pIC50 in test [2] was 6.35.

Turning to `CC(C)CCC1(CCC(C)C)C(=O)C(C2=NS(=O)(=O)c3cc(NS(C)(=O)=O)ccc3N2)=C(O)c2ccccc21`, the pEC50 in the test with Hepatitis C virus [1] is 6.37. This molecule showed a pIC50 in test [2] of 7.17.
